Laboratory results as given in patent publication US20260130933A1, “PHARMACEUTICAL COMPOSITION FOR PREVENTION OR TREATMENT OF NEPHROPATHY AND/OR DIABETES MELLITUS, COMPRISING ENAVOGLIFLOZIN” (DAEWOONG PHARMACEUTICAL CO., LTD., priority 2022, published 2026).

Test: Example 3: phase 3 trial, enavogliflozin 0.3 mg vs dapagliflozin 10 mg once a day for 24 weeks added to metformin and gemigliptin in patients with type 2 diabetes (same endpoints, rescue drug)
Type: in vivo, human
Protocol: 1) when Metformin (≥1,000 mg/Day) was Administered at a Constant Dose for at Least 8 Weeks Prior to Pre-Visit (Pre-Screening) • Metformin (≥1,000 mg/day) and gemigliptin (50 mg/day) were co-administered during the 8-week stabilization period. […] 4) when Metformin (≥1,000 mg/Day) and Gemigliptin (50 mg/Day) were Co-Administered at Constant Doses for at Least 8 Weeks Prior to Pre-Visit (Prescreening) • Without a separate stabilization period, Pre-visit (pre-screening) was Visit 1 (screening).
Subjects who met the inclusion/exclusion criteria continued to receive metformin and gemigliptin while receiving a placebo of the clinical trial drug in a single-blind (subject-blinded) state for a 2-week run-in period.
Here, the randomized subjects were stratified according to the administration therapy (co-administration with two or less agents (one or two agents) or three or more agents) of a conventional hypoglycemic agent (before washout of another hypoglycemic agent) within 24 weeks prior to obtaining written informed consent and by an HbA1c value (<8% or ≥8%) at Visit 1 (screening) measured in the central laboratory.
The randomized subjects were administered two tablets of the clinical trial drug corresponding to each administration group once a day, and then visited the institution at weeks 6, 12, 18, and 24 during the 24-week administration period to conduct efficacy and safety assessments. In addition, during the clinical trial period, they were instructed to exercise regularly and control their diet without changing their daily life patterns.
• 1) Change in HbA1c at week 24 after administration of clinical trial drug compared to Visit 2 (randomization)
• 1) Change in HbA1c at each time point of weeks 6, 12, and 18 after administration of clinical trial drug compared to Visit 2 (randomization) • 2) Change in FPG at each time point of weeks 6, 12, 18, and 24 after administration of clinical trial drug compared to Visit 2 (randomization) • 3) Proportion of subjects achieving HbA1c<7% at each time point of weeks 6, 12, 18, and 24 after administration of clinical trial drug • 4) Proportion of subjects achieving HbA1c<6.5% at each time point of weeks 6, 12, 18, and 24 after administration of clinical trial drug • 5) Proportion of subjects achieving therapeutic response (HbA1c change (HbA1c at Visit 2—HbA1c at each evaluation time point)>0.5% or HbA1c<7% at each evaluation time point compared to Visit 2 (randomization)) at each time point of weeks 6, 12, 18, and 24 after administration of clinical trial drug • 6) Proportion of subjects achieving therapeutic response (HbA1c change (HbA1c at Visit 2—HbA1c at each evaluation time point)>0.7% or HbA1c<7% at each evaluation time point compared to Visit 2 (randomization)) at each time point of weeks 6, 12, 18, and 24 after administration of clinical trial drug • 7) Proportion of subjects achieving therapeutic response (HbA1c change (HbA1c at Visit 2—HbA1c at each evaluation time point)>1% or HbA1c<7% at each evaluation time point compared to Visit 2 (randomization)) at each time point of weeks 6, 12, 18, and 24 after administration of clinical trial drug

[1] = week 12, per-protocol set, enavogliflozin 0.3 mg, dapagliflozin 10 mg
[2] = week 18, modified per-protocol set 1, enavogliflozin 0.3 mg vs dapagliflozin 10 mg
[3] = week 18, modified per-protocol set 1, enavogliflozin 0.3 mg, dapagliflozin 10 mg
[4] = week 18, modified per-protocol set 2

OC[C@H]1O[C@@H](c2cc(Cc3ccc(C4CC4)cc3)c(Cl)c3c2CCO3)[C@H](O)[C@@H](O)[C@@H]1O [Enavogliflozin, (2S,3R,4R,5S,6R)-2-(7-chloro-6 (4-cyclopropylbenzyl)-2,3-dihydrobenzofuran-4-yl)-6-(hydroxymethyl)tetrahydro-2H-pyran-3,4,5-triol]
HbA1c, Median [1]: 6.83%
Subjects achieving HbA1c target of <6.5%, (%) [1]: 23.08%
Subjects achieving HbA1c target of <7%, % [1]: 67.52%
body weight, Median [1]: 65.80 kg
Subjects achieving therapeutic glycemic response 1, % (week 12, per-protocol set, response 1 = HbA1c change >0.5% or HbA1c <7%, enavogliflozin 0.3 mg, dapagliflozin 10 mg): 89.74%
Subjects achieving therapeutic glycemic response 2, % (week 12, per-protocol set, response 2 = HbA1c change >0.7% or HbA1c <7%, enavogliflozin 0.3 mg, dapagliflozin 10 mg): 85.47%
Subjects achieving therapeutic glycemic response 3, % (week 12, per-protocol set, response 3 = HbA1c change >1% or HbA1c <7%, enavogliflozin 0.3 mg, dapagliflozin 10 mg): 78.63%
FPG change from baseline, LS mean (SE) (week 18): −27.77(1.63) mg/dL
HDL-C change from baseline, LS mean (SE) (week 18): 3.82(0.64) mg/dL
HOMA-IR change from baseline, LS mean (SE) (week 18): −1.14(0.11)
HOMA-β change from baseline, LS mean (SE) (week 18): 5.97(2.27)
HbA1c change from baseline, LS mean (SE) (week 18): −0.83(0.05) % p
LDL-C change from baseline, LS mean (SE) (week 18): 0.29(1.63) mg/dL
Subjects achieving therapeutic response (HbA1c change >0.5% or HbA1c<7%) (week 18): 82.91%
UACR change from baseline, LS mean (SE) (week 18): −11.08(3.89) g/kg
UGCR change from baseline, LS mean (SE) (week 18): 58.74(2.33) mg/mg
adiponectin change from baseline, LS mean (SE) (week 18): 0.78(0.33) μg/mL
body weight change from baseline, LS mean (SE) (week 18): −3.16(0.24) kg
diastolic blood pressure change from baseline, LS mean (SE) (week 18): −3.41(0.71) mmHg
fasting C-peptide change from baseline, LS mean (SE) (week 18): −0.08(0.02) ng/mL
leptin change from baseline, LS mean (SE) (week 18): −1.46(0.52) ng/ml
systolic blood pressure change from baseline, LS mean (SE) (week 18): −6.82(0.92) mmHg
total cholesterol change from baseline, LS mean (SE) (week 18): 4.27(1.94) mg/dL
triglyceride change from baseline, LS mean (SE) (week 18): −11.64(4.46) mg/dL
FPG change from baseline, LS mean difference (week 18, vs dapagliflozin): -4.22 mg/dL
HDL-C change from baseline, LS mean difference (week 18, vs dapagliflozin): 0.40 mg/dL
HOMA-IR change from baseline, LS mean difference (week 18, vs dapagliflozin): −0.13
HOMA-β change from baseline, LS mean difference (week 18, vs dapagliflozin): 1.48
HbA1c change from baseline, LS mean difference (week 18, vs dapagliflozin): −0.07 % p
LDL-C change from baseline, LS mean difference (week 18, vs dapagliflozin): -1.10 mg/dL
Odds ratio for achieving HbA1c<6.5% (week 18, vs dapagliflozin): 1.20
Odds ratio for achieving HbA1c<7% (week 18, vs dapagliflozin): 1.36
Odds ratio, therapeutic response (HbA1c change >0.5% or HbA1c<7%) (week 18, vs dapagliflozin): 1.02
Odds ratio, therapeutic response (HbA1c change >0.7% or HbA1c<7%) (week 18, vs dapagliflozin): 1.09
Odds ratio, therapeutic response (HbA1c change >1% or HbA1c<7%) (week 18, vs dapagliflozin): 1.22
UACR change from baseline, LS mean difference (week 18, vs dapagliflozin): -2.18 g/kg
UGCR change from baseline, LS mean difference (week 18, vs dapagliflozin): 13.34 mg/mg
adiponectin change from baseline, LS mean difference (week 18, vs dapagliflozin): 0.42 µg/mL
body weight change from baseline, LS mean difference (week 18, vs dapagliflozin): -0.15 kg
diastolic blood pressure change from baseline, LS mean difference (week 18, vs dapagliflozin): −0.99 mmHg
fasting C-peptide change from baseline, LS mean difference (week 18, vs dapagliflozin): -0.02 ng/mL
leptin change from baseline, LS mean difference (week 18, vs dapagliflozin): -0.40 ng/mL
systolic blood pressure change from baseline, LS mean difference (week 18, vs dapagliflozin): −1.66 mmHg
total cholesterol change from baseline, LS mean difference (week 18, vs dapagliflozin): 0.61 mg/dL
triglyceride change from baseline, LS mean difference (week 18, vs dapagliflozin): 0.75 mg/dL
Change from baseline in HDL-C, ANCOVA LS mean difference [2]: 0.40 mg/dL
Change from baseline in LDL-C, ANCOVA LS mean difference [2]: -1.10 mg/dL
Change from baseline in total cholesterol, ANCOVA LS mean difference [2]: 0.61 mg/dL
Change from baseline in triglycerides, ANCOVA LS mean difference [2]: 0.75 mg/dL
Change from baseline in HDL-C, ANCOVA LS mean [3]: 3.82 mg/dL
Change from baseline in HDL-C, Mean [3]: 4.09 mg/dL
Change from baseline in HDL-C, Median [3]: 3.00 mg/dL
Change from baseline in LDL-C, ANCOVA LS mean [3]: 0.29 mg/dL
Change from baseline in LDL-C, Mean [3]: 0.94 mg/dL
Change from baseline in LDL-C, Median [3]: 0.00 mg/dL
Change from baseline in total cholesterol, ANCOVA LS mean [3]: 4.27 mg/dL
Change from baseline in total cholesterol, Mean [3]: 5.06 mg/dL
Change from baseline in total cholesterol, Median [3]: 3.00 mg/dL
Change from baseline in triglycerides, ANCOVA LS mean [3]: -11.64 mg/dL
Change from baseline in triglycerides, Mean [3]: -9.60 mg/dL
Change from baseline in triglycerides, Median [3]: -2.00 mg/dL
Fasting HDL-C, Mean [3]: 50.17 mg/dL
Fasting HDL-C, Median [3]: 49.50 mg/dL
Fasting LDL-C, Mean [3]: 72.10 mg/dL
Fasting LDL-C, Median [3]: 68.00 mg/dL
Fasting total cholesterol, Mean [3]: 139.38 mg/dL
Fasting triglycerides, Mean [3]: 109.52 mg/dL
Fasting triglycerides, Median [3]: 95.50 mg/dL
fasting Total cholesterol, Median [3]: 134.00 mg/dL
Change from baseline in diastolic blood pressure, ANCOVA LS mean [4]: −3.41 mmHg
Change from baseline in diastolic blood pressure, LS mean difference (enavogliflozin − dapagliflozin) [4]: −0.99 mmHg
Change from baseline in diastolic blood pressure, Mean [4]: −4.03 mmHg
